Source: US20240115729A1, “COMPOSITIONS AND METHODS FOR TARGETED ANTIFIBROTIC THERAPY IN CHRONIC PANCREATITIS” (University of Virginia Patent Foundation, priority 2021, published 2024)

Assays:
[1] = system: caerulein-induced CP mice; experiment: Antifibrotic efficacy of targeted delivery of apigenin in caerulein-induced CP mice (H&E, picrosirius red, fibronectin); type: in vivo, mouse (C57BL/6J); settings: CP mice pancreas after 3-week treatment; free drug 2 mg/kg oral 6 days per week, liposomes 6 mg/kg i.v. twice per week
Protocol: Apigenin treatments lasted for 3 weeks for the remaining 3 weeks of caerulein induction. […] Pancreata were perfused, harvested, and paraffin-embedded for immunohistochemistry staining. Livers were perfused, harvested, and partially paraffin-embedded for histology staining. […] Singh et al., 2012). […] The quantification of picrosirius red was determined by Image J, using threshold applied on the red composites of the RGB images. […] Fibronectin expression was quantified using the positive pixel count function on QuPath software (Bankhead et al., 2017). […] Serum alanine aminotransferase (ALT) and blood urea nitrogen (BUN) were determined on […] 8008 Chemistry Analyzer (IDEXX, Westbrook, Maine, United States of America). […] To test the antifibrotic efficacy of targeted liposomes, we evaluated the pharmacodynamics of apigenin in the free drug form, encapsulated in non-targeted liposomes and in ECM liposomes (FIG. 11A). ECM liposomes without drug loading were included in the study as vehicle control. C57BL/6J mice were injected with caerulein 14 days before treatment started to establish inflammation in the pancreas. […] FIGS. 11D and 11G). […] FIGS. 11C and 11F).

[2] = reported on PubChem; cited from earlier work

## O=c1cc(-c2ccc(O)cc2)oc2cc(O)cc(O)c12 [Apigenin, 4′,5,7-trihydroxyflavone]
[1]
  collagen deposition (Picrosirius red-positive area): 24.90 % area
[2]
  Charge (ph 7.4): 0
  Log P: 1.7
  Water Solubility: 183 mg/mL
  pKa1: 7.12
  pKa2: 8.10
